In this experiment the target is Annexin A2/S100-A10 (Homo sapiens) (UniProt P07355+P60903). In words: Inhibition of Annexin A2/Protein S100-A10 protein interaction in human MDA-MB-231 cells by Western blotting based immunoprecipitation assay. The class given is cell-based. (In general: In western blotting, separated proteins are transferred to a membrane and probed.)

Calls of active or inactive are those of the source. The calls are words filed in the database; no cut-off is given here.

Annexin A2/S100-A10 (Homo sapiens), sequence (P07355 2-339 limits assumed): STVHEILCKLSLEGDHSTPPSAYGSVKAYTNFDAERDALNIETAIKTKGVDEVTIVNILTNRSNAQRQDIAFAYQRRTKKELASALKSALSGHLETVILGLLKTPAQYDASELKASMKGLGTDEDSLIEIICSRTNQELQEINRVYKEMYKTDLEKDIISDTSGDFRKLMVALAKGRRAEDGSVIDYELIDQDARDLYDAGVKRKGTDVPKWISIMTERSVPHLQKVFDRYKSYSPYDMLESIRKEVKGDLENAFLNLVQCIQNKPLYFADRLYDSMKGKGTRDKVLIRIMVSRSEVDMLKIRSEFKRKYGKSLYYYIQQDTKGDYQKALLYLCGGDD
Annexin A2/S100-A10 (Homo sapiens), sequence (P60903 whole entry partner): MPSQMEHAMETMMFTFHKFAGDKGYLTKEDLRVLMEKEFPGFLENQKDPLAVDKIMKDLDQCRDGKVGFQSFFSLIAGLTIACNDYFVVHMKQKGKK

As to Ac-MSTVHEILCKLSLE-OH, the inhibition entry was “Active”.
Regarding `Cc1cc(C)nc(SCc2nnc(SCC(=O)Nc3ccc(C(C)C)cc3)n2Cc2ccco2)n1`, the inhibition entry was “Active”.

Values taken from ChEMBL document CHEMBL3352440, “Design, synthesis and SAR exploration of tri-substituted 1,2,4-triazoles as inhibitors of the annexin A2-S100A10 protein interaction” (Bioorg Med Chem, 2014).
